The target of experiment [1] is T1, purified human Factor XIa (Homo sapiens, UniProt P03951).
T1 construct: purified human Factor XIa; purchased Sekisui Diagnostics
The experiment can be described thus: Factor XIa Assay. As to conditions: purified human Factor XIa 40 pM; substrate Z-Gly-Pro-Arg-AFC 100 μM; 50 mM HEPES pH 7.4; read-out: Hu FXIa Ki. It counts as biochemical. Summed up:
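Purified human FXIa at 40 pM, in 50 mM HEPES pH 7.4 with 150 mM NaCl, 5 mM CaCl2 and 0.1% PEG 8000, was preequilibrated with inhibitor. Initial hydrolysis rates of Z-Gly-Pro-Arg-AFC were then measured at room temperature or 37 °C. Ki was derived from Vo/Vi = 1 + [I]/Ki, assuming competitive inhibition.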

In experiment [2] the target is T2, purified Human plasma kallikrein (Homo sapiens, UniProt P03952).
T2 construct: yields a heavy chain (371 amino acids) and a light chain (248 amino acids); purchased Enzyme Research Laboratories
The experiment can be described thus: Kallikrein Assay. It counts as biochemical. As to conditions: purified Human plasma kallikrein 0.5 nM; substrate Acetyl-K-P-R-AFC; 50 mM HEPES pH 7.4; Ki from IC50 by Cheng Prusoff equation; read-out: Hu P. Kallikrein. How it is done:
The effectiveness of a compound of the present invention as an inhibitor of Kallikrein can be determined using a relevant purified serine protease, and an appropriate synthetic substrate. The rate of hydrolysis of the chromogenic or fluorogenic substrate by the relevant serine protease was measured both in the absence and presence of compounds of the present invention. Assays were conducted at room temperature or at 37° C. […] A decrease in the rate of fluorescence change in the presence of inhibitor is indicative of enzyme inhibition. Such methods are known to one skilled in the art. The results of this assay are expressed as the inhibitory constant, Ki. Kallikrein determinations were made in 50 mM HEPES buffer at pH 7.4 containing 150 mM NaCl, 5 mM CaCl2, and 0.1% PEG 8000 (polyethylene glycol; Fisher Scientific). Determinations were made using purified Human plasma kallikrein at a final concentration of 0.5 nM (Enzyme Research Laboratories) and the synthetic substrate, Acetyl-K—P-R-AFC (Sigma # C6608) at a concentration of […]. Activity assays were performed by diluting a stock solution of substrate at least tenfold to a final concentration ≤0.2 Km into a solution containing enzyme or enzyme equilibrated with inhibitor. Times required to achieve equilibration between enzyme and inhibitor were determined in control experiments. The reactions were performed under linear progress curve conditions and fluorescence increase measured at 405 Ex/510 Em nm. Values were converted to percent inhibition of the control reaction (after subtracting 100% Inhibition value). IC50 was determined by inflection point from a four parameter logistic curve fit. Ki was calculated using the Cheng Prusoff equation, Ki=IC50/(1+([S]/Km)). The activities shown by this assay indicate that the compounds of the invention may be therapeutically useful for treating or preventing various cardiovascular and/or cerebrovascular thromboembolic conditions in patients suffering from unstable angina, acute coronary syndrome, refractory angina, myocardial infarction, transient ischemic attacks, atrial fibrillation, stroke such as thrombotic stroke or embolic stroke, venous thrombosis, coronary and cerebral arterial thrombosis, cerebral and pulmonary embolism, atherosclerosis, deep vein thrombosis, disseminated intravascular coagulation, and reocclusion or restenosis of recanalized vessels.

In patent publication US10344039B2, “Macrocyclic spirocarbamate derivatives as factor XIa inhibitors, pharmaceutically acceptable compositions and their use” (MERCK SHARP & DOHME CORP., priority 2015, dated 2019) one finds Ki data, which are given here for 14 compounds.

T2 sequence (P03952 391-638 limits assumed): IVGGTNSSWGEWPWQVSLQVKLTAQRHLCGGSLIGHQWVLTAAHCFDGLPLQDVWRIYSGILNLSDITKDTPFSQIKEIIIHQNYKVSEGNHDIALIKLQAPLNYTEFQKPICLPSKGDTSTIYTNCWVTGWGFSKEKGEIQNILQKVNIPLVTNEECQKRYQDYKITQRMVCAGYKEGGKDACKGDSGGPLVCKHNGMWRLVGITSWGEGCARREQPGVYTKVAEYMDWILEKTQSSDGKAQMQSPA
T2 sequence (P03952 20-390 partner limits assumed): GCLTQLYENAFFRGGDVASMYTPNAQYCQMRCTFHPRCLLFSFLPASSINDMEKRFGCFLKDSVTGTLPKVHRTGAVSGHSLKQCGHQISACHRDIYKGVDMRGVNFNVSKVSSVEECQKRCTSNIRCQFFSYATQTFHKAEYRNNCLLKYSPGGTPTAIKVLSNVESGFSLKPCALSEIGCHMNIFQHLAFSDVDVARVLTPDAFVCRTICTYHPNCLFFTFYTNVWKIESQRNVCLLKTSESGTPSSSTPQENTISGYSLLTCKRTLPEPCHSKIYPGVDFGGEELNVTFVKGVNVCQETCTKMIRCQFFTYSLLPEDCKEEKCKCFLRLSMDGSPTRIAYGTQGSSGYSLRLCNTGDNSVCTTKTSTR
T1 sequence (P03951 388-625 limits assumed): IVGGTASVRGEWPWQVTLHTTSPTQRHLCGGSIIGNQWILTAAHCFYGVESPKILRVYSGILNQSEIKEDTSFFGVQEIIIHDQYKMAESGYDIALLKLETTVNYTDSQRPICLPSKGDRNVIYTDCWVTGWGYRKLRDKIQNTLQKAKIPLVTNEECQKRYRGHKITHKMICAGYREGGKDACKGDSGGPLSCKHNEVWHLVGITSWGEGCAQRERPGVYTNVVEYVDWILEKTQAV
T1 sequence (P03951 19-387 partner limits assumed): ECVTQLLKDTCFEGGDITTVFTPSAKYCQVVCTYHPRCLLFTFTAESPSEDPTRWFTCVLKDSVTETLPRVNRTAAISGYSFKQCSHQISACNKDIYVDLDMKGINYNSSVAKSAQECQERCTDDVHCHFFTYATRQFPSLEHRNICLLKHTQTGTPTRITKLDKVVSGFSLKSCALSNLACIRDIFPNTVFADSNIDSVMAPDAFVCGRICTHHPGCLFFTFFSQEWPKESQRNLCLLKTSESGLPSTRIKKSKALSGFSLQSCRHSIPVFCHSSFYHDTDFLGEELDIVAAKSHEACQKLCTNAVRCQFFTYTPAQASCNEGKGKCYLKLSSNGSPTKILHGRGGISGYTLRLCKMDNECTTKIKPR

With `CCOC(=O)C1C/C=C/CC(C(=O)N2CCC[C@@]3(C2)OC(=O)Nc2ccc(Cl)c(F)c23)c2nc(c[nH]2)-c2ccc(NC(=O)OC)cc2N1` (stereo partly drawn) [Example 31, ethyl (1^2Z,6E)-9-((R)-6-chloro-5-fluoro-2-oxo-1,2-dihydrospiro[benzo[d][1,3]oxazine-4,3′-piperidine]-1′-carbonyl)-2^4-((methoxycarbonyl)amino)-1^1H-3-aza-1(4,2)-imidazola-2(1,2)-benzenacyclononaphan-6-ene-4-carboxylate], the values for the Ki in experiment [1] and in experiment [2] were 41.1 nM and 63.7 nM, respectively.
In the same order, the values of `COC(=O)Nc1ccc2c(c1)NC(=O)CCCCC(C(=O)N1CC[C@@]3(C1)OC(=O)Nc1ccc(Cl)c(F)c13)c1nc-2c[nH]1` (mixture of isomers) [Example 4, methyl ((Z)-9-((R)-6-chloro-5-fluoro-2-oxo-1,2-dihydrospiro[benzo[d][1,3]oxazine-4,3′-pyrrolidine]-1′-carbonyl)-4-oxo-1^1H-3-aza-1(4,2)-imidazola-2(1,2)-benzenacyclononaphane-2^4-yl)carbamate] are 0.86 nM and 1.24 nM.
In the same order, the values of `COC(=O)Nc1ccc2c(c1)NC(=O)CCCC[C@@H](C(=O)N1CC[C@@]3(C1)OC(=O)Nc1ccc(Cl)c(F)c13)c1ccnc-2c1` [Example 25a, methyl ((R)-9-((R)-6-chloro-5-fluoro-2-oxo-1,2-dihydrospiro[benzo[d][1,3]oxazine-4,3′-pyrrolidine]-1′-carbonyl)-4-oxo-3-aza-1(2,4)-pyridina-2(1,2)-benzenacyclononaphane-2^4-yl)carbamate] are 1.3 nM and 0.75 nM.
With `COC(=O)Nc1ccc2c(c1)NC(=O)CCCC[C@@H](C(=O)N1CCC[C@@]3(C1)OC(=O)Nc1ccc(Cl)cc13)c1nc-2c(Cl)[nH]1` [Example 7a, methyl ((R,Z)-1^5-chloro-9-((R)-6-chloro-2-oxo-1,2-dihydrospiro[benzo[d][1,3]oxazine-4,3′-piperidine]-1′-carbonyl)-4-oxo-11H-3-aza-1(4,2)-imidazola-2(1,2)-benzenacyclononaphane-2^4-yl)carbamate], the results for the Ki in experiment [1] and in experiment [2] were 0.42 nM and 0.39 nM, respectively.
In the same order, the values of `COC(=O)Nc1ccc2c(c1)NC(=O)CCCCC(C(=O)N1CCC[C@@]3(C1)OC(=O)Nc1ccc(Cl)c(F)c13)c1nc-2c(C)[nH]1` (mixture of isomers) [Example 12, methyl ((Z)-9-((R)-6-chloro-5-fluoro-2-oxo-1,2-dihydrospiro[benzo[d][1,3]oxazine-4,3′-piperidine]-1′-carbonyl)-1^5-methyl-4-oxo-1^1H-3-aza-1(4,2)-imidazola-2(1,2)-benzenacyclononaphane-2^4-yl)carbamate] are 2.7 nM and 1.28 nM.
In the same order, the values of `COC(=O)Nc1ccc2c(c1)NC(=O)[C@H](C)CCC[C@@H](C(=O)N1CCC[C@@]3(C1)OC(=O)Nc1ccc(Cl)c(F)c13)C1=NC=C2O1` [Example 14a, methyl ((5R,9R)-9-((R)-6-chloro-5-fluoro-2-oxo-1,2-dihydrospiro[benzo[d][1,3]oxazine-4,3′-piperidine]-1′-carbonyl)-5-methyl-4-oxo-3-aza-1(5,2)-oxazola-2(1,2)-benzenacyclononaphane-2^4-yl)carbamate] are 13.4 nM and 5.5 nM.
In the same order, the values of `CCOC(=O)C1CCCCC(C(=O)N2CCC[C@@]3(C2)OC(=O)Nc2ccc(Cl)c(F)c23)c2nc(c[nH]2)-c2ccc(NC(=O)OC)cc2N1` (mixture of isomers) [Example 32, ethyl (Z)-9-((R)-6-chloro-5-fluoro-2-oxo-1,2-dihydrospiro[benzo[d][1,3]oxazine-4,3′-piperidine]-1′-carbonyl)-2^4-((methoxycarbonyl)amino)-1^1H-3-aza-1(4,2)-imidazola-2(1,2)-benzenacyclononaphane-4-carboxylate] are 4.94 nM and 15.5 nM.
For `COC(=O)Nc1ccc2c(c1)NC(=O)CCCCC[C@@H](C(=O)N1CC[C@@]3(C1)OC(=O)Nc1ccc(Cl)c(F)c13)c1cc-2ccn1` [Example 18a, methyl ((R)-10-((R)-6-chloro-5-fluoro-2-oxo-1,2-dihydrospiro[benzo[d][1,3]oxazine-4,3′-pyrrolidine]-1′-carbonyl)-4-oxo-3-aza-1(4,2)-pyridina-2(1,2)-benzenacyclodecaphane-2^4-yl)carbamate], the Ki in experiment [1] is 8.6 nM; in experiment [2], 3.65 nM.
In the same order, the values of `O=C1CCCCC(C(=O)N2CCC[C@@]3(C2)OC(=O)Nc2ccc(Cl)c(F)c23)c2cc(ccn2)-c2cc3ccc(=O)[nH]c3cc2N1` (mixture of isomers) [Example 27, 3-((R)-6-chloro-5-fluoro-2-oxo-1,2-dihydrospiro[benzo[d][1,3]oxazine-4,3′-piperidine]-1′-carbonyl)-1^1,1^2-dihydro-9-aza-1(6,7)-quinolina-2(4,2)-pyridinacyclononaphane-1^2,8-dione] are 13 nM and 0.6 nM.
In the same order, the values of `COC(=O)Nc1ccc2c(c1)NC(=O)CCCC[C@H](C(=O)N1CC[C@@]3(C1)OC(=O)Nc1ccc(Cl)cc13)c1nc-2c(Cl)[nH]1` (single isomer, unassigned) [Example 6b] are 16 nM and 32 nM.
For the compound `COC(=O)Nc1ccc2c(c1)NC(=O)[C@H](C)CCCC(C(=O)N1CC[C@@]3(C1)OC(=O)Nc1ccc(Cl)c(F)c13)c1nc-2c(Cl)[nH]1` (mixture of isomers) [Example 11], the Ki in experiment [1] stood at 0.74 nM; in experiment [2] it was 1.32 nM.
`COC(=O)Nc1ccc2c(c1)NC(=O)CC/C=C/C[C@@H](C(=O)N1CCC[C@@]3(C1)OC(=O)Nc1ccc(Cl)c(F)c13)c1cc-2ccn1` [Example 21a, methyl ((R,E)-10-((R)-6-chloro-5-fluoro-2-oxo-1,2-dihydrospiro[benzo[d][1,3]oxazine-4,3′-piperidine]-1′-carbonyl)-4-oxo-3-aza-1(4,2)-pyridina-2(1,2)-benzenacyclodecaphanen-2^4-yl)carbamate]: the values for the Ki in experiment [1] and in experiment [2] were 59.4 nM and 17 nM, respectively.
For the compound `COC(=O)Nc1ccc2c(c1)NC(=O)CCCCC(C(=O)N1CCC[C@@]3(C1)OC(=O)Nc1ccc(Cl)c(F)c13)c1nc-2c(Cl)[nH]1` (mixture of isomers) [Example 8, methyl ((Z)-1^5-chloro-9-((R)-6-chloro-5-fluoro-2-oxo-1,2-dihydrospiro[benzo[d][1,3]oxazine-4,3′-piperidine]-1′-carbonyl)-4-oxo-1^1H-3-aza-1(4,2)-imidazola-2(1,2)-benzenacyclononaphane-2^4-yl)carbamate], the Ki in experiment [1] was determined as 0.25 nM; in experiment [2], 0.56 nM.
In the same order, the values of `COC(=O)Nc1ccc2c(c1)NC(=O)CCCC[C@@H](C(=O)N1CC[C@@]3(C1)OC(=O)Nc1ccc(Cl)cc13)c1nc-2c[nH]1` (single isomer, unassigned) [Example 1a] are 2.37 nM and 1.99 nM.
